Data reported in publication PMC6755732, “Structural, Biochemical, and In Vivo Characterization of MtrR-Mediated Resistance to Innate Antimicrobials by the Human Pathogen Neisseria gonorrhoeae” (Journal of Bacteriology, 2019).
Where two headings read alike, the source gives them in different places.

Columns and labels:
[1] = tested on: mtrCp-lacZ in FA19 (wild type); assay: β-Galactosidase assay of mtrCp-lacZ fusion, strain FA19; format: cell-based, Neisseria gonorrhoeae
Description: (§1) To determine if sublethal concentrations of bile salts could relieve MtrR-mediated repression of mtrC (and, by inference, the mtrCDE operon), a translational fusion of the promoter region of mtrC to lacZ was used. This fusion system was made in the wild-type (FA19) background ([41]) and cloned into mtrR deletion mutant strain JF1. Using the mtrCp-lacZ fusion, the β-galactosidase activity of the strains grown in the presence or absence of the bile salt chenodeoxycholate, taurodeoxycholate, or glycocholate was measured. The β-galactosidase levels were determined from strains grown overnight on GC agar supplemented with the bile salt at concentrations 4-fold below their specific MICs to ensure that the concentration of each bile salt was in the same biological range (the bile salt concentrations are listed in Table 2).
N. gonorrhoeae strains FA19 (wild type) and JF1 (FA19 ΔmtrR) containing a translational mtrCp-lacZ fusion with the proAB locus were used to assess the ability of bile salts to induce mtrC expression; the construction of these strains has been described previously ([41]). The MIC of bile salts for each strain used in the β-galactosidase assay was determined using a 2-fold agar dilution method ([32]). Gonococci were grown overnight on GC agar (Difco Laboratories) supplemented with a bile salt (glycocholate, chenodeoxycholate, or taurodeoxycholate) at concentrations that were 4-fold below the MIC. After overnight growth at 37°C under 3.8% (vol/vol) CO2, the bacteria were scraped from the agar plate, resuspended in 1 ml phosphate-buffered saline (pH 7.4), and lysed by freeze-thawing three times, after which the cell debris was pelleted by centrifugation. The lysate was then used to determine β-galactosidase levels as described previously ([63]). All experiments were performed in triplicate with at least three biological replicates conducted on different days.

[2] = tested on: mtrCp-lacZ in JF1 (FA19 ΔmtrR); format: cell-based, Neisseria gonorrhoeae
Description: as §1
N. gonorrhoeae strains FA19 (wild type) and JF1 (FA19 ΔmtrR) containing a translational mtrCp-lacZ fusion with the proAB locus were used to assess the ability of bile salts to induce mtrC expression; the construction of these strains has been described previously ([41]). The MIC of bile salts for each strain used in the β-galactosidase assay was determined using a 2-fold agar dilution method ([32]). […]

MtrR-DNA complex = biological target: T1, MtrR-DNA complex (Neisseria gonorrhoeae, UniProt P39897); format: biochemical; conditions: EMSA, wild-type MtrR, mtrC promoter oligoduplex
T1 construct: nearly all 210 residues of each protomer observed, with the exception of residues 1 through 7; hexahistidine tag (thrombin-cleavable) (cleaved yes); made in house
T1 sequence (P39897 whole entry, one chain of several): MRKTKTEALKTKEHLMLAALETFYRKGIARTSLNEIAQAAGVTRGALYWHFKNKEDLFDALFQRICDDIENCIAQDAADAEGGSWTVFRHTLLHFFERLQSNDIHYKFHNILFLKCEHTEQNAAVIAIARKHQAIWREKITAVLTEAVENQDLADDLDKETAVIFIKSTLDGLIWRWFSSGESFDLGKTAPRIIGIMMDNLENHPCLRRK
Protocol: To test the hypothesis that these bile salts directly bind to MtrR and potentially derepress gene expression by interfering with the DNA binding activity of MtrR, MtrR-mtrC promoter interactions were tested in the presence and absence of different concentrations of several bile salts. […] It is important to note that this is a competition assay that, due to its experimental design, requires the use of 3 μM DNA and 4 to 10 μM MtrR dimer. Consequently, this means that ∼99.9% of all DNA is MtrR bound.
Complementary oligodeoxynucleotides containing the MtrR binding site from the mtrC promoter (top strand, 5′-[sequence]-3′; an unusual pseudo-direct repeat is underlined) were annealed by heating an equimolar mixture of the top and bottom strands at 95°C for 5 min, followed by slow cooling to room temperature. Binding reactions were carried out in 20-μl volumes of binding buffer (20 mM Tris [pH 8.0], 200 mM NaCl, 10% glycerol, and 1 mM TCEP) containing 1 μg oligoduplex, 1 μg poly(dI-dC), and 4 to 10 μg MtrR. After a 20-minute incubation at room temperature, the preformed complex was incubated with or without various concentrations of selected bile salts at room temperature for an additional 10 min. […] The gels were stained with ethidium bromide and visualized and analyzed with an Alpha Innotech gel documentation instrument. The intensities of free DNA were measured with ImageJII ([61], [62]).

MtrR = biological target: T2, MtrR (Neisseria gonorrhoeae, UniProt P39897); assay: Isothermal titration calorimetry, wild-type MtrR with bile salts; format: binding; conditions: ITC, 25°C, 20 μM MtrR in cell, 250 μM ligand in syringe
T2 construct: A codon optimized gene of MtrR was synthesized by GenScript and cloned into the; hexahistidine tag with TEV protease site (N, cleaved yes); made in house
T2 sequence (P39897 whole entry): as the sequence (P39897 whole entry, one chain of several) above
Protocol: Purified MtrR was dialyzed extensively against buffer containing 20 mM Tris [pH 8.0], 200 mM NaCl, 10% glycerol, and 1 mM TCEP overnight at 4°C. The stock solutions and the necessary dilutions of the bile salts were prepared using this dialysis buffer. Titrations with 20 μM MtrR in the cell and 250 μM ligand in the syringe were performed using a VP-ITC microcalorimeter (Microcal Inc.). All measurements were conducted at 25°C with a stirring speed of 200 rpm. After subtraction of germane blank data, the titration data were analyzed using the program ORIGIN 5.0.
Protein purification for Isothermal Titration Calorimetry experiments and mutant […]
A codon optimized gene of MtrR was synthesized by GenScript and cloned into the pMCSG7 vector in- frame with the N-terminal Hexa- histidine tag and tobacco etch virus (TEV) protease cleavage site. This construct was used as the template for site- directed mutagenesis and to generate wild- type data in supplemental f igures 5-6 and Isothermal Titration Calorimetry data. This protein was overexpressed and purified as described in the “Materials and Methods” of the document, except the he xa -histidine tag MtrR was cleaved by TEV protease following NiNTA affinity chromatography. Cleaved MtrR was purified from tagged MtrR and cleaved hexa- histidine tag by Ni- NTA aff inity chromatography and then further purified by size exclusion chromatography (S200).

MtrR-mtrCDE promoter = biological target: T3, MtrR-mtrCDE promoter (Neisseria gonorrhoeae, UniProt P39897); format: biochemical; conditions: versus no bile salt
T3 construct: nearly all 210 residues of each protomer observed, with the exception of residues 1 through 7; hexahistidine tag (thrombin-cleavable) (cleaved yes); made in house
T3 sequence (P39897 whole entry): as the sequence (P39897 whole entry, one chain of several) above
Protocol: Thus, to rule out any effect of alkaline pH on MtrR-DNA interactions, we buffered the CAPS used in the FP assay to pH 8.0 before testing its effect on DNA binding.
Fluorescence polarization-based DNA binding experiments were performed with a Panvera Beacon 2000 fluorescence polarization system (Invitrogen) utilizing 5′-fluorescein-labeled DNA. Polarization (P) of such 5′-labeled DNA increases as a function of protein binding, and equilibrium dissociation constants are determined by curve fitting the values of millipolarization (P × 10^−3) units against the protein concentration. To determine the effects of various ligands on MtrR-DNA binding, 1 nM 5′-fluoresceinated oligodeoxynucleotide duplexes containing the mtrC operator site in 1 ml binding buffer (20 mM Tris HCl [pH 8.0], 100 mM NaCl, and 2.5% glycerol) were titrated against increasing concentrations of purified MtrR in the presence or absence of the indicated concentrations of bile salt, and the resulting changes in polarization were measured. All the samples were excited at 490 nm, and their polarized emissions were measured at 530 nm. All the data were plotted using Kaleidagraph (Synergy Software) and Prism (GraphPad Software), and the resulting plots were fitted to the following equation: P = {(Pbound − Pfree)[protein]/(KD + [protein])} + Pfree, where P is the polarization measured at a given protein concentration, Pfree is the initial polarization of the free ligand, Pbound is the maximum polarization of specifically bound ligand, KD is the equilibrium dissociation constant, and [protein] is the protein concentration. Nonlinear least-squares analysis was used to determine Pbound, and Kd. The reported binding constants are the average values from at least three independent experimental measurements.

C[C@H](CCC(=O)NCC(=O)O)[C@H]1CC[C@H]2[C@@H]3[C@H](O)C[C@@H]4C[C@H](O)CC[C@]4(C)[C@H]3C[C@H](O)[C@]12C [Glycocholate, glycocholate]
MtrR-dependent derepression of the mtrC promoter ([1]; FA19 compared with ΔmtrR strain JF1, sublethal bile salt): failed to exhibit MtrR-dependent derepression | Fold increase of mtrCp-lacZ activity ([1]; strain FA19, grown on GC agar with bile salt 4-fold below MIC versus normal agar, mM concentration in parentheses in the cell): 1.43 (0.48) | Fold increase of mtrCp-lacZ activity [2]: 2.11 (0.96) | Concentration that disrupts the preformed MtrR-DNA complex (MtrR-DNA complex): > 40 mM | Kd of bile salt binding to WT MtrR (MtrR): no measurable binding | Fold increase in Kd (MtrR-mtrCDE promoter; 1 mM bile salt): 1.2 | Fold increase in Kd (MtrR-mtrCDE promoter; 1 mM bile salt, listed as glycocholate): no effect | Fold increase in Kd (MtrR-mtrCDE promoter; 5 mM bile salt): 5 | Fold increase in Kd (MtrR-mtrCDE promoter; 10 mM bile salt): 6
